# Test results reported in patent publication US20120252729A1, “PTH-CONTAINING THERAPEUTIC/PROPHYLACTIC AGENT FOR OSTEOPOROSIS, CHARACTERIZED IN THAT PTH IS ADMINISTERED ONCE A WEEK IN A UNIT DOSE OF 100 TO 200 UNITS” (ASAHI KASEI PHARMA CORPORATION, priority 2009, published 2012).
# Columns and labels:
# [1] = tested on: patients diagnosed with primary osteoporosis; assay: Working Example 1: lumbar spine bone mineral density by DXA, teriparatide acetate 5 or 100 units once a week plus calcium agent; type: in vivo, human; conditions: mean ± SD
# Procedure: (§1) Both the 5 and 100 unit groups were administered two tablets of a calcium agent (containing 500 mg of precipitated calcium carbonate [200 mg as calcium] per tablet) once a day.
# (§2) The osteoporosis patients were classified as condition shown in Table 1 based on the bone fracture risk factors present, as in Non-patent Reference 13, and compared. High-risk patients were defined as having all three factors involving age, prevalent vertebral fractures, and bone density or bone atrophy; low-risk patients were defined as other than the above.
# [2] = tested on: patients diagnosed with primary osteoporosis; assay: Working Example 1: new vertebral fractures by x-ray (method of Genant et al.); type: in vivo, human
# Procedure: as §1, §2
# [3] = in vivo
# Procedure: The Lumbar spine bone mineral density and occurrence of bone fractures were checked as bone assessments. For the Lumbar spine bone mineral density, the bone density of the second to fourth lumbar spine was measured at the start and every six months thereafter using dual-energy x-ray absorptiometry (DXA). For the frequency of bone fractures, x-rays were taken from the front and side of the fourth thoracic to the fifth lumbar spine at the start and every six months thereafter, and new vertebral fractures were assessed by comparison of the roentgen films at the start and at each point in time thereafter using the method of Genant et al. (Non-patent Reference 14) as a reference. In locations other than the vertebrae, fractures were evaluated by checking by roentgen films. Blood samples were also taken from all patients at the beginning and during administration, and the general laboratory test values, including the calcium concentration, were measured. The administration period in high-risk patients (DXA and new vertebral fractures were assessed collectively at the center; fractures of other than vertebrae were assessed by the investigator based on the roentgen films) was 85.1±20.8 weeks in the 5 unit group and 83.7±19.8 weeks in the 100 unit group. […] The administration period in low-risk patients was 72.7±19.4 weeks in the 5 unit group and 88.3±21.3 weeks in the 100 unit group.
# [4] = in vivo; remark: listed apart in the source
# Procedure: The serum calcium was measured at the start, after 12 weeks, after 24 weeks, after 48 weeks, and after 72 weeks. Serum calcium standard value: 8.4 to 10.4 mg/dL. The standard concomitant drug (610 mg of calcium, 400 IU of vitamin D3, and 30 mg of magnesium) was taken once a day after dinner from the time of consent to the end of the trial.
# [5] = in vivo; remark: listed apart in the source
# Procedure: The ratio of the urinary calcium value/urinary creatine value was compared before beginning administration and in the weeks of observation. The urinary calcium was measured at the start, after 12 weeks, after 24 weeks, after 48 weeks, and after 72 weeks.
# [6] = tested on: osteoporosis patients having normal renal function, mild or moderate renal dysfunction; conditions: in vivo
# Excerpt: The incidence of adverse events was studied after administering the test drug to the a group of osteoporosis patients having normal renal function, a group of osteoporosis patients having mild renal dysfunction, and a group of osteoporosis patients having moderate renal dysfunction.
# [7] = tested on: high-risk patients diagnosed with primary osteoporosis; assay: Working Example 2: bone density of lumbar spine and femur by DXA; type: in vivo, human; conditions: 200 units weekly; for Change in lumbar vertebral density (%), median: after 72 W
# [8] = high-risk patients, 5 units, after 26 W
# [9] = high-risk patients, 5 units, after 52 W
# [10] = high-risk patients, 5 units, after 78 W
# [11] = high-risk patients, 5 units, after 104 W
# [12] = high-risk patients, 5 units, after 130 W
# [13] = high-risk patients, 100 units, after 26 W
# [14] = high-risk patients, 100 units, after 52 W
# [15] = high-risk patients, 100 units, after 78 W
# [16] = high-risk patients, 100 units, after 104 W
# [17] = high-risk patients, 100 units, after 130 W
# [18] = low-risk patients, 5 units, after 26 W
# [19] = low-risk patients, 5 units, after 52 W
# [20] = low-risk patients, 5 units, after 78 W
# [21] = low-risk patients, 5 units, after 104 W
# [22] = low-risk patients, 5 units, after 130 W
# [23] = low-risk patients, 100 units, after 26 W
# [24] = low-risk patients, 100 units, after 52 W
# [25] = low-risk patients, 100 units, after 78 W
# [26] = low-risk patients, 100 units, after 104 W
# [27] = low-risk patients, 100 units, after 130 W
substance,measurement,setting,value
teriparatide acetate,Lumbar spine bone mineral density (% change),"[1]; high-risk patients, 5 units once a week, after 26 W",−0.9 ± 4.4%
same,Lumbar spine bone mineral density (% change),"[1]; high-risk patients, 5 units once a week, after 52 W",−0.6 ± 4.1%
same,Lumbar spine bone mineral density (% change),"[1]; high-risk patients, 5 units once a week, after 78 W",0.4 ± 4.1%
same,Lumbar spine bone mineral density (% change),"[1]; high-risk patients, 5 units once a week, after 104 W",0.4 ± 4.0%
same,Lumbar spine bone mineral density (% change),"[1]; high-risk patients, 5 units once a week, final check",−0.1 ± 4.8%
same,Lumbar spine bone mineral density (% change),"[1]; high-risk patients, 100 units once a week, after 26 W",3.3 ± 4.5 %
same,Lumbar spine bone mineral density (% change),"[1]; high-risk patients, 100 units once a week, after 52 W",4.3 ± 4.5 %
same,Lumbar spine bone mineral density (% change),"[1]; high-risk patients, 100 units once a week, after 78 W",4.0 ± 4.5 %
same,Lumbar spine bone mineral density (% change),"[1]; high-risk patients, 100 units once a week, after 104 W",4.9 ± 4.2 %
same,Lumbar spine bone mineral density (% change),"[1]; high-risk patients, 100 units once a week, final check",4.5 ± 4.6 %
same,Lumbar spine bone mineral density (% change),"[1]; low-risk patients, 5 units once a week, after 26 W",−0.6 ± 6.4%
same,Lumbar spine bone mineral density (% change),"[1]; low-risk patients, 5 units once a week, after 52 W",−0.7 ± 6.2%
same,Lumbar spine bone mineral density (% change),"[1]; low-risk patients, 5 units once a week, after 78 W",1.9 ± 7.5%
same,Lumbar spine bone mineral density (% change),"[1]; low-risk patients, 5 units once a week, final check",−0.6 ± 5.7%
same,New vertebral fractures every 26 weeks: Incidence (%),[2]; [8],9.5%
same,New vertebral fractures every 26 weeks: No. of fractures,[2]; [8],8
same,New vertebral fractures every 26 weeks: No. with fractures,[2]; [8],6
same,New vertebral fractures every 26 weeks: Incidence (%),[2]; [9],11.1%
same,New vertebral fractures every 26 weeks: No. of fractures,[2]; [9],9
same,New vertebral fractures every 26 weeks: No. with fractures,[2]; [9],7
same,New vertebral fractures every 26 weeks: Incidence (%),[2]; [10],7.0%
same,New vertebral fractures every 26 weeks: No. of fractures,[2]; [10],4
same,New vertebral fractures every 26 weeks: No. with fractures,[2]; [10],4
same,New vertebral fractures every 26 weeks: Incidence (%),[2]; [11],2.9%
same,New vertebral fractures every 26 weeks: No. of fractures,[2]; [11],1
same,New vertebral fractures every 26 weeks: No. with fractures,[2]; [11],1
same,New vertebral fractures every 26 weeks: No. of fractures,[2]; [12],0
same,New vertebral fractures every 26 weeks: No. with fractures,[2]; [12],0
same,New vertebral fractures every 26 weeks: Incidence (%),[2]; [13],2.0%
same,New vertebral fractures every 26 weeks: No. of fractures,[2]; [13],1
same,New vertebral fractures every 26 weeks: No. with fractures,[2]; [13],1
same,New vertebral fractures every 26 weeks: Incidence (%),[2]; [14],2.0%
same,New vertebral fractures every 26 weeks: No. of fractures,[2]; [14],1
same,New vertebral fractures every 26 weeks: No. with fractures,[2]; [14],1
same,New vertebral fractures every 26 weeks: Incidence (%),[2]; [15],2.2%
same,New vertebral fractures every 26 weeks: No. of fractures,[2]; [15],1
same,New vertebral fractures every 26 weeks: No. with fractures,[2]; [15],1
same,New vertebral fractures every 26 weeks: No. of fractures,[2]; [16],0
same,New vertebral fractures every 26 weeks: No. with fractures,[2]; [16],0
same,New vertebral fractures every 26 weeks: No. of fractures,[2]; [17],0
same,New vertebral fractures every 26 weeks: No. with fractures,[2]; [17],0
same,New vertebral fractures every 26 weeks: No. of fractures,[2]; [18],0
same,New vertebral fractures every 26 weeks: No. with fractures,[2]; [18],0
same,New vertebral fractures every 26 weeks: Incidence (%),[2]; [19],4.8%
same,New vertebral fractures every 26 weeks: No. of fractures,[2]; [19],1
same,New vertebral fractures every 26 weeks: No. with fractures,[2]; [19],1
same,New vertebral fractures every 26 weeks: No. of fractures,[2]; [20],0
same,New vertebral fractures every 26 weeks: No. with fractures,[2]; [20],0
same,New vertebral fractures every 26 weeks: No. of fractures,[2]; [21],0
same,New vertebral fractures every 26 weeks: No. with fractures,[2]; [21],0
same,New vertebral fractures every 26 weeks: No. of fractures,[2]; [22],0
same,New vertebral fractures every 26 weeks: No. with fractures,[2]; [22],0
same,New vertebral fractures every 26 weeks: Incidence (%),[2]; [23],8.3%
same,New vertebral fractures every 26 weeks: No. of fractures,[2]; [23],2
same,New vertebral fractures every 26 weeks: No. with fractures,[2]; [23],1
same,New vertebral fractures every 26 weeks: No. of fractures,[2]; [24],0
same,New vertebral fractures every 26 weeks: No. with fractures,[2]; [24],0
same,New vertebral fractures every 26 weeks: No. of fractures,[2]; [25],0
same,New vertebral fractures every 26 weeks: No. with fractures,[2]; [25],0
same,New vertebral fractures every 26 weeks: No. of fractures,[2]; [26],0
same,New vertebral fractures every 26 weeks: No. with fractures,[2]; [26],0
same,New vertebral fractures every 26 weeks: No. of fractures,[2]; [27],0
same,New vertebral fractures every 26 weeks: No. with fractures,[2]; [27],0
same,Hypercalcemia during the administration period,[3],did not cause hypercalcemia at either dose
same,"Corrected serum calcium value after administration, maximum",[4],11.6 mg/dL
same,"Corrected serum calcium value, range of the average",[4],9.3 to 9.6 mg/dL
same,"Corrected serum calcium, Mean",[4],9.5 mg/dL
same,"Corrected serum calcium, Median",[4],9.5 mg/dL
same,Manifestation of hypercalcemia or hypercalciuria,[4],No manifestation of hypercalcemia or hypercalciuria was found
same,Safety in terms of the serum calcium (corrected serum calcium vs control),[4],equivalent safety in terms of the serum calcium in all groups
same,Average percentage change in the urinary calcium value,[5],3.2%
same,Median percentage change in the urinary calcium value,[5],−14.7%
same,Adverse events: point estimate of the difference (PTH200 group vs P group),[6],2.0
same,"Change in lumbar vertebral density (%), median",[7]; mild impairment (≧50-<80),6.6%
same,"Change in lumbar vertebral density (%), median",[7]; normal (≧80),8.0%
same,"Change in lumbar vertebral density (%), mean","[7]; normal (≧80), final",7.5%
